Measurements reported in EP0176913A2, “Glycourethane derivatives, methods for their preparation and their use” (BEHRINGWERKE Aktiengesellschaft, priority 1984, dated 1986).

Test system: Erdnußlectin (Arachis Hypogea)
Assay: Inhibition of peanut lectin haemagglutination of neuraminidase-treated erythrocytes
Assay type: cell-based
Conditions: compound at 0,5 mg/ml; erythrocytes as 2,5% suspension; lectin titer 2-^8
Experimental: Inhibition von Erdnußlectin (Arachis Hypogea) mit Verbindung 29
Die Hämagglutination von Neuraminidase(VCN)-behandelten Erythrozyten (als 2,5%-ige Suspension) mit Erdunßlectin (Titer 2-^8) wurde vollständig mit Verbindung 29 (0,5 mg/ml) inhibiert.

CC(=O)N[C@H]1[C@@H](OC(=O)N[C@@H](CO)C(=O)NCCCCCC(=O)O)O[C@H](CO)[C@H](O)[C@@H]1O[C@@H]1O[C@H](CO)[C@H](O)[C@H](O)[C@H]1O [Verbindung 29, N-((2-Acetamido-2-desoxy-3-0-(8-D-galactopyranosyl)-alpha-D-galactopyranosyl)-oxycarbonyl)-L-seryl-S-carboxy-pentylamid]
Hämagglutination von Neuraminidase(VCN)-behandelten Erythrozyten mit Erdunßlectin inhibiert: vollständig
